Activity calls are given as the source filed them. No rule for the calls is given here.
Test system: CCRIS mutagenicity, Ames/micronucleus/aberration tests
Assay: CCRIS mutagenicity studies
[1] = Test System: AMES SALMONELLA TYPHIMURIUM, Strain/Indicator: TA98, Metabolic Activation: NONE, Method: STANDARD PLATE
[2] = Test System: AMES SALMONELLA TYPHIMURIUM, Strain/Indicator: TA98, Metabolic Activation: RAT, LIVER, S-9, AROCLOR 1254, Method: STANDARD PLATE
[3] = Test System: AMES SALMONELLA TYPHIMURIUM, Strain/Indicator: TA100, Metabolic Activation: NONE, Method: STANDARD PLATE
[4] = Test System: AMES SALMONELLA TYPHIMURIUM, Strain/Indicator: TA100, Metabolic Activation: RAT, LIVER, S-9, AROCLOR 1254, Method: STANDARD PLATE
[5] = Test System: AMES SALMONELLA TYPHIMURIUM, Strain/Indicator: TA1538, Metabolic Activation: NONE, Method: STANDARD PLATE
[6] = Test System: AMES SALMONELLA TYPHIMURIUM, Strain/Indicator: TA98, Metabolic Activation: NONE, Method: PREINCUBATION
[7] = Test System: AMES SALMONELLA TYPHIMURIUM, Strain/Indicator: TA100, Metabolic Activation: NONE, Method: PREINCUBATION

CCCCOc1cc(N=Nc2ccccc2)ccc1N=Nc1c(S(=O)(=O)O)cc2ccc(N)cc2c1O
mutagenic call [1]: inactive; negative
mutagenic call [2]: active; positive
mutagenic call [3]: inactive; negative
mutagenic call [4]: inactive; negative
mutagenic call [5]: inactive; negative
mutagenic call (Test System: AMES SALMONELLA TYPHIMURIUM, Strain/Indicator: TA1538, Metabolic Activation: RAT, LIVER, S-9, AROCLOR 1254, Method: STANDARD PLATE): active; positive

Cc1ccc(N(CC2(O)OC[C@@H](O)[C@@H](O)[C@@H]2O)N=O)cc1 (stereo partly specified)
mutagenic call (Test System: AMES SALMONELLA TYPHIMURIUM, Strain/Indicator: TA100, Metabolic Activation: NONE, Method: LIQUID INCUBATION): active; positive

Cc1cnc2c(n1)c(C)c(C)c1c2nc(N)n1C
mutagenic call [2]: active; positive

CCCCCCCCCCCC(=O)OOC(=O)CCCCCCCCCCC
mutagenic call (Test System: AMES SALMONELLA TYPHIMURIUM, Strain/Indicator: TA98, Metabolic Activation: HAMSTER, LIVER, S-9, AROCLOR 1254 (10%), Method: STANDARD PLATE): inactive; negative
mutagenic call [1]: inactive; negative
mutagenic call (Test System: AMES SALMONELLA TYPHIMURIUM, Strain/Indicator: TA98, Metabolic Activation: RAT, LIVER, S-9, AROCLOR 1254 (10%), Method: STANDARD PLATE): inactive; negative
mutagenic call (Test System: AMES SALMONELLA TYPHIMURIUM, Strain/Indicator: TA100, Metabolic Activation: HAMSTER, LIVER, S-9, AROCLOR 1254 (10%), Method: STANDARD PLATE): inactive; negative
mutagenic call [3]: inactive; negative
mutagenic call (Test System: AMES SALMONELLA TYPHIMURIUM, Strain/Indicator: TA100, Metabolic Activation: RAT, LIVER, S-9, AROCLOR 1254 (10%), Method: STANDARD PLATE): inactive; negative
mutagenic call (Test System: AMES SALMONELLA TYPHIMURIUM, Strain/Indicator: TA1535, Metabolic Activation: HAMSTER, LIVER, S-9, AROCLOR 1254 (10%), Method: STANDARD PLATE): inactive; negative
mutagenic call (Test System: AMES SALMONELLA TYPHIMURIUM, Strain/Indicator: TA1535, Metabolic Activation: NONE, Method: STANDARD PLATE): inactive; negative
mutagenic call (Test System: AMES SALMONELLA TYPHIMURIUM, Strain/Indicator: TA1535, Metabolic Activation: RAT, LIVER, S-9, AROCLOR 1254 (10%), Method: STANDARD PLATE): inactive; negative
mutagenic call (Test System: AMES SALMONELLA TYPHIMURIUM, Strain/Indicator: TA1537, Metabolic Activation: HAMSTER, LIVER, S-9, AROCLOR 1254 (10%), Method: STANDARD PLATE): inactive; negative
mutagenic call (Test System: AMES SALMONELLA TYPHIMURIUM, Strain/Indicator: TA1537, Metabolic Activation: NONE, Method: STANDARD PLATE): inactive; negative
mutagenic call (Test System: AMES SALMONELLA TYPHIMURIUM, Strain/Indicator: TA1537, Metabolic Activation: RAT, LIVER, S-9, AROCLOR 1254 (10%), Method: STANDARD PLATE): inactive; negative
mutagenic call (Test System: AMES SALMONELLA TYPHIMURIUM, Strain/Indicator: TA1538, Metabolic Activation: HAMSTER, LIVER, S-9, AROCLOR 1254 (10%), Method: STANDARD PLATE): inactive; negative
mutagenic call [5]: inactive; negative
mutagenic call (Test System: AMES SALMONELLA TYPHIMURIUM, Strain/Indicator: TA1538, Metabolic Activation: RAT, LIVER, S-9, AROCLOR 1254 (10%), Method: STANDARD PLATE): inactive; negative
mutagenic call (Test System: MOUSE LYMPHOMA, Strain/Indicator: L5178Y (TK+/TK-), Metabolic Activation: NONE, Method: SUSPENSION/PLATE): inactive; negative. reevaluation of results: inconclusive
mutagenic call (Test System: MOUSE LYMPHOMA, Strain/Indicator: L5178Y (TK+/TK-), Metabolic Activation: RAT, LIVER, S-9, AROCLOR 1254, Method: SUSPENSION/PLATE): inactive; negative. reevaluation of results: inconclusive

OC1CC=Cc2cccnc21 (stereo unspecified)
mutagenic call [3]: inactive; negative
mutagenic call (Test System: AMES SALMONELLA TYPHIMURIUM, Strain/Indicator: TA100, Metabolic Activation: RAT, LIVER, S-9, AROCLOR 1254 (10 OR 20%), Method: STANDARD PLATE): inactive; negative

O=C1c2ccccc2-c2cccc3cccc1c23
mutagenic call [1]: inactive; negative
mutagenic call [2]: active; positive
mutagenic call [4]: active; positive

COC1=CC(=O)C[C@@H](C)[C@]12Oc1c(Cl)c(OC)cc(OC)c1C2=O
mutagenic call (End Point: IN VITRO CHROMOSOMAL ABERRATIONS, Test System: PERIPHERAL HUMAN BLOOD LYMPHOCYTES, Metabolic Activation: NONE): active; positive (ploidy changes)
mutagenic call (End Point: IN VITRO MICRONUCLEUS, Test System: CHO CELLS, Metabolic Activation: RAT, LIVER, S-9, AROCLOR 1254): active; positive
mutagenic call (End Point: IN VITRO MICRONUCLEUS, Test System: V79 CELLS, Metabolic Activation: NONE): active; positive
mutagenic call (Test System: AMES SALMONELLA TYPHIMURIUM, Strain/Indicator: TA97, Metabolic Activation: HAMSTER, LIVER, S-9, AROCLOR 1254 (10 OR 30%), Method: PREINCUBATION): inactive; negative
mutagenic call (Test System: AMES SALMONELLA TYPHIMURIUM, Strain/Indicator: TA97, Metabolic Activation: NONE, Method: PREINCUBATION): inactive; negative
mutagenic call (Test System: AMES SALMONELLA TYPHIMURIUM, Strain/Indicator: TA97, Metabolic Activation: RAT, LIVER, S-9, AROCLOR 1254 (10 OR 30%), Method: PREINCUBATION): inactive; negative
mutagenic call (Test System: AMES SALMONELLA TYPHIMURIUM, Strain/Indicator: TA98, Metabolic Activation: HAMSTER, LIVER, S-9, AROCLOR 1254 (10 OR 30%), Method: PREINCUBATION): inactive; negative
mutagenic call [6]: inactive; negative
mutagenic call (Test System: AMES SALMONELLA TYPHIMURIUM, Strain/Indicator: TA98, Metabolic Activation: RAT, LIVER, S-9, AROCLOR 1254 (10 OR 30%), Method: PREINCUBATION): inactive; negative
mutagenic call (Test System: AMES SALMONELLA TYPHIMURIUM, Strain/Indicator: TA100, Metabolic Activation: HAMSTER, LIVER, S-9, AROCLOR 1254 (10 OR 30%), Method: PREINCUBATION): inactive; negative
mutagenic call [7]: inactive; negative
mutagenic call (Test System: AMES SALMONELLA TYPHIMURIUM, Strain/Indicator: TA100, Metabolic Activation: RAT, LIVER, S-9, AROCLOR 1254 (10 OR 30%), Method: PREINCUBATION): inactive; negative
mutagenic call (Test System: AMES SALMONELLA TYPHIMURIUM, Strain/Indicator: TA100, Metabolic Activation: RAT, LIVER, S-9, PHENOBARBITAL, Method: PREINCUBATION): inactive; negative
mutagenic call (Test System: AMES SALMONELLA TYPHIMURIUM, Strain/Indicator: TA1535, Metabolic Activation: HAMSTER, LIVER, S-9, AROCLOR 1254 (10 OR 30%), Method: PREINCUBATION): inactive; negative
mutagenic call (Test System: AMES SALMONELLA TYPHIMURIUM, Strain/Indicator: TA1535, Metabolic Activation: NONE, Method: PREINCUBATION): inactive; negative
mutagenic call (Test System: AMES SALMONELLA TYPHIMURIUM, Strain/Indicator: TA1535, Metabolic Activation: RAT, LIVER, S-9, AROCLOR 1254 (10 OR 30%), Method: PREINCUBATION): inactive; negative
mutagenic call (Test System: AMES SALMONELLA TYPHIMURIUM, Strain/Indicator: TA1537, Metabolic Activation: HAMSTER, LIVER, S-9, AROCLOR 1254 (30%), Method: PREINCUBATION): inactive; negative
mutagenic call (Test System: AMES SALMONELLA TYPHIMURIUM, Strain/Indicator: TA1537, Metabolic Activation: NONE, Method: PREINCUBATION): inactive; negative
mutagenic call (Test System: AMES SALMONELLA TYPHIMURIUM, Strain/Indicator: TA1537, Metabolic Activation: RAT, LIVER, S-9, AROCLOR 1254 (30%), Method: PREINCUBATION): inactive; negative
mutagenic call (Test System: MOUSE LYMPHOMA, Strain/Indicator: L5178Y (TK+/TK-), Metabolic Activation: NONE, Method: MICROWELL): active; positive
mutagenic call (Test System: MOUSE LYMPHOMA, Strain/Indicator: L5178Y (TK+/TK-), Metabolic Activation: S-9, Method: MICROWELL): active; positive

CCc1ccccc1N
mutagenic call [6]: inactive; negative
mutagenic call (Test System: AMES SALMONELLA TYPHIMURIUM, Strain/Indicator: TA98, Metabolic Activation: S-9, Method: PREINCUBATION): inactive; negative
mutagenic call [7]: inactive; negative
mutagenic call (Test System: AMES SALMONELLA TYPHIMURIUM, Strain/Indicator: TA100, Metabolic Activation: S-9, Method: PREINCUBATION): inactive; negative
mutagenic call (Test System: UDS RODENT HEPATOCYTES, Strain/Indicator: THY INCORP (NON-S-PHASE), Metabolic Activation: NONE, Method: AUTORADIOGRAPHY): inactive; negative
